In patent US5919934A, “Compounds, compositions, and methods for cancer imaging and therapy” (The George Washington University, priority 1997, dated 1999):
Read-outs that look alike come from different tables or passages of the source.

Assays:
sigma receptors [1] = molecular target: T1, sigma receptors (Homo sapiens, UniProt Q5BJF2); settings: MCF-7 cells, Scatchard's analysis; cited from earlier work
T1 construct: MCF-7 breast tumor cells express sigma receptors; host or cells: MCF-7 cells

[2] = test system: non-melanoma cells in the liver and lung; settings: cited from earlier work
sigma receptors [3] = type: binding, human; settings: T47D cells; for IC50: 37° C., 1 hr, against [Tc-99m]EN6, read-out: IC50 for inhibition of binding of [Tc-99m]EN6
Protocol: T47D human ductal breast carcinoma cells were purchased from ATCC, Rockville, Md. and cultured in serum supplemented medium DMEM containing 10% heat inactivated fetal bovine serum (GIBCO) at 37° C. The cells were adherent and split weekly in a 1:20 ratio using trypsin/EDTA (GIBCO). The cells were then transferred to 24 well plates and allowed to be adherent and confluent (about 0.5 million cells) or the cells were grown in T75 cell culture flasks and were detached when they were confluent using trypsin/EDTA (0.025%) or scraped with a cell scraper in DMEM.
Competition binding studies in human ductal breast cancer cells (T47D) were performed as follows. T47D cells were cultured in serum supplemented medium (RPMI-1640) containing 10% heat inactivated fetal bovine serum (GIBCO) at 37° C. The cells were adherent and split weekly in a 1:20 ratio using trypsin/EDTA (GIBCO). The cells were scraped using a cell scraper from T75 culture flasks and centrifuged in a Sorvall 6000B centrifuge at a speed of 4000 rpm. The growth medium was removed and the cell pellet was resuspended in […] serum free media.
The affinity of compounds for sites labeled by [Tc-99m]EN6 in human breast cancer cells was determined by heterologous in-vitro competitive binding assays in whole cells. The following method was used: A small aliquot of the cell suspension (100 μL) was incubated with [Tc-99m]EN6 and varying concentrations to (10^-4 to 10^-12 M) of arylethylenediamines keeping a total volume 1.0 mL constant. The cells were incubated at 37° C. for 1 hr and subsequently filtered through a Brandel Cell harvester (Brandel, Gaithersburg, Md.) and washed with de-ionized cold water. The radioactivity associated with the cells on filters was counted on a Beckman (DP 5500) Gamma Counter.
The data was analyzed with the iterative nonlinear least square curve fitting program GraphPAD Inplot (Graph PAD Software, San Diego, Calif.). The Cheng-Prussoff equation was then used to convert IC50 values to apparent K1 values.

sigma-2 sites = molecular target: T2, sigma-2 sites (Rattus norvegicus, UniProt Q5U3Y7); experiment: Sigma-2 binding in rat liver membrane preparation against [^3 H]DTG in the presence of dextrallorphan
T2 construct: sigma-2 sites in rat liver membrane preparation; from tissue; host or cells: rat liver membranes
T2 sequence (Q5U3Y7 1-176): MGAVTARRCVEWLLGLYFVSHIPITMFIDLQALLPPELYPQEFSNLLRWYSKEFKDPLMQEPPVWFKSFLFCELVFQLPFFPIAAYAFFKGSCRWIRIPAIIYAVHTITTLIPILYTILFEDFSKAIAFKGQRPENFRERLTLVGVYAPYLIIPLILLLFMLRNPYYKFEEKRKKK

sigma-1 sites = molecular target: T3, sigma-1 sites (Cavia porcellus, UniProt Q60492); experiment: Sigma-1 binding in guinea pig brain against [^3 H]-(+)-pentazocine
T3 construct: sigma-1 sites in guinea pig brain; from tissue; host or cells: guinea pig brain
T3 sequence (Q60492 whole entry): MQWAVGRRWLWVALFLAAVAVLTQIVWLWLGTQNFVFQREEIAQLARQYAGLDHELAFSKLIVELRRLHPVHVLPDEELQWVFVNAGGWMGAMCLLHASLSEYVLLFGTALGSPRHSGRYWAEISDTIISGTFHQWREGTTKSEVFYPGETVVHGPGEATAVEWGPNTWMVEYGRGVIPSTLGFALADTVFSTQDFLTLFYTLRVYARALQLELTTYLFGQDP

[4] = test system: sigma-1 and sigma-2 receptors; experiment: In-vivo blocking with BD1008 in Sprague-Dawley rats; settings: 2 micromol BD1008 co-injected
Protocol: Animal biodistribution and blocking studies were performed in rats as follows. Sprague Dawley rats (200-250 g) were anesthetized with ketamine/xylazine and injected intravenously with ^99m Tc-EN6, XXIII, ([…]) in 0.2 ml saline containing up to 20% ethanol solution. At 0.5, 1, and 4 hr post-injection blood samples were drawn by cardiac puncture and the rats were sacrificed thereafter by cardiectomy while under ketamine/xylazine anesthesia. The organs of interest were then excised, blotted with tissue paper, weighed and the radioactivity counted. The % injected dose/organ was determined by comparison of the tissue radioactivity with suitably diluted, known quantity aliquots of the injected dose. […] The animals were sacrificed at 4 hr post-injection and the organs of interest were removed and handled as above.
S. B. Hellewell, et al., Rat liver and kidney contain high densities of sigma-1 and sigma-2 receptors: characterization by ligand binding and photoaffinity labeling, Eur. J. Pharmacol.--Mol. Pharmacol. Sect. 268:9-18 (1994), all of which are hereby incorporated by reference.

sigma receptors [5] = settings: human breast and melanoma tumor cells; cited from earlier work
sigma receptor = settings: guinea pig brain; cited from earlier work

T1 sequence (Q5BJF2 whole entry): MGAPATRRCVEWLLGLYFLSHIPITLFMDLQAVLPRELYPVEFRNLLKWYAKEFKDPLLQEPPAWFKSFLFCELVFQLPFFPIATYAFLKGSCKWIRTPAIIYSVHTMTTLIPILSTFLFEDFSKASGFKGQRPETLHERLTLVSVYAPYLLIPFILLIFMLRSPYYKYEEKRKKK

For `O=C(NC1CCN(Cc2ccccc2)CC1)c1ccc([125I])cc1` [4-[^125 I]-4-(N-benzylpiperidin-4-yl)-4-iodobenzamide], the receptors per cell (sigma receptors [1]) is listed as “approximately a million”.
In the case of `CCN(CC)CCNC(=O)c1ccc(I)cc1` [IDAB, N-(diethylaminoethyl)4-iodobenzamide], the “uptake by non-melanoma cells” value [2] is listed as “taken up in high concentrations”.
In the case of `CN(CCc1ccc(I)cc1)CCN1CCCCC1` [IPEMP], the “inhibition of [Tc-99m]EN6 binding” value (sigma receptors [3]) is reported as “dose-dependent inhibition of binding”, the IC50 (sigma receptors [3]) is reported as 59 ± 5 nM and the Ki (sigma-2 sites) is reported as 15.2 ± 2.35 nM. For the same compound, the Ki (sigma-1 sites) was 0.82 ± 0.13 nM.
In the case of `CN(CCc1ccc(Cl)c(Cl)c1)CCN1CCCC1` [BD1008], the “inhibition of [Tc-99m]EN6 binding” value (sigma receptors [3]) is reported as “dose-dependent inhibition of binding”, the IC50 (sigma receptors [3]) is reported as 47 ± 2 nM and the “inhibition of binding of ^99m Tc-complex in the kidneys” value ([4]; kidneys, 4 hr post-i.v. injection) is reported as “about 60%”. The “reduction of radioactivity in liver” value ([4]; liver, 4 hr post-injection) was 34%, the “reduction of radioactivity in lungs” value ([4]; lungs, 4 hr post-injection) was 48% and the Ki (sigma-2 sites; rat liver membrane, against [^3 H]DTG in the presence of dextrallorphan, read-out: Ki for sigma-2 sites) was 8.1 ± 2.2 nM.
For `CN(CCc1ccc([125I])cc1)CCN1CCCCC1` [4-[^125 I]PEMP, [^125 I]N-[2-(4-iodophenyl)ethyl]-N-methyl-2-(1-piperidinyl)ethylamine], the “specific binding to the sigma receptors” value (sigma receptors [5]) is listed as “very high specific binding” and the “inhibition binding isotherms” value (sigma receptor) is listed as “consistent with sigma receptor pharmacology”.
